Question: Which melting point does the source give for `ON=Cc1ccc(OCc2ccncc2)cc1` here?
Answer: 163 to 165 °C

Question: Which melting point does the source give for `NC(=O)c1ccc(C(N)=S)cc1` here?
Answer: 240 to 242 °C

Question: With `CC(C)(C)C(N)CN1CCc2ccccc2C1` (centres undefined) as the molecule, how does the melting point read?
Answer: 62 to 64 °C

Question: With `CS(=O)(=O)NCc1ccc(C(=O)O)o1` as the molecule, how does the melting point read?
Answer: 139 to 141 °C

Question: Which melting point does the source give for `N#Cc1ccccc1SCC(=O)O` here?
Answer: 143 to 145 °C

Question: With `O=C(CCl)c1ccc(F)c(Cl)c1` as the molecule, how does the melting point read?
Answer: 37 to 39 °C

Question: With `CCOC(=O)/C(C#N)=C\Nc1ccc(F)c(F)c1F` as the molecule, how does the melting point read?
Answer: 142 to 144 °C

Question: With `CC(C)(C)c1ccc(CCCCC(=O)O)cc1` as the molecule, how does the melting point read?
Answer: 71 to 73 °C

Question: Which melting point does the source give for `Nc1ccc(N2CCNC2=O)cc1` here?
Answer: 171 to 173 °C

Question: For `CCOC(=O)CNC(=O)CC`, which melting point is on record?
Answer: 50 to 52 °C

Question: For `Cc1oc(-c2ccc(Cl)cc2)nc1C(=O)O`, which melting point is on record?
Answer: 235 to 237 °C

Question: For `CCOc1ccc2ncc(C#N)c(Cl)c2c1`, which melting point is on record?
Answer: 125 to 127 °C

Question: For `CC(C)CCC1CCC(=O)NC1=O` (centres undefined), which melting point is on record?
Answer: 117 to 119 °C

Question: With `O=[N+]([O-])c1ccccc1NCCO` as the molecule, how does the melting point read?
Answer: 76 to 78 °C

Question: With `COc1ccc(SCC(=O)O)cc1` as the molecule, how does the melting point read?
Answer: 77 to 79 °C

Question: With `O=S(=O)(Cl)c1cc(Br)ccc1Cl` as the molecule, how does the melting point read?
Answer: 64 to 66 °C

Question: Which melting point does the source give for `OC1CCNCc2ccccc21` (centres undefined) here?
Answer: 139 to 141 °C

Question: Which melting point does the source give for `COc1ccccc1NS(=O)(=O)c1cc(C(=O)O)ccc1Cl` here?
Answer: 176 to 178 °C

Question: Which melting point does the source give for `CS(=O)(=O)c1ccc(C(=O)O)cc1[N+](=O)[O-]` here?
Answer: 274 to 276 °C

Question: With `c1ccc2c(-c3nc4ccccc4[nH]3)cccc2c1` as the molecule, how does the melting point read?
Answer: 264 to 266 °C

Question: With `Nc1ccc(N2CCOCC2)cn1` as the molecule, how does the melting point read?
Answer: 143 to 145 °C

Question: With `Cn1cc(C=O)nn1` as the molecule, how does the melting point read?
Answer: 103 to 105 °C

Question: With `NC(CCCN1CCCCC1)=NO` as the molecule, how does the melting point read?
Answer: 89 to 91 °C

Question: Which melting point does the source give for `O=Cc1cnc(N2CCOCC2)s1` here?
Answer: 163 to 165 °C

Question: For `CCNS(=O)(=O)c1ccc(I)cc1`, which melting point is on record?
Answer: 112 to 114 °C

Question: With `O=C(CCl)Nc1cccc(CSc2ccccn2)c1` as the molecule, how does the melting point read?
Answer: 90 to 92 °C

Question: With `O=c1ccc([N+](=O)[O-])cn1CCCl` as the molecule, how does the melting point read?
Answer: 130 to 132 °C

Question: Which melting point does the source give for `CCOC(=O)c1cn[nH]c1C(F)F` here?
Answer: 64 to 66 °C

Question: For `O=C(O)CS(=O)Cc1ccc(Br)cc1` (centres undefined), which melting point is on record?
Answer: 141 to 143 °C

Question: Which melting point does the source give for `Cn1c(C(=O)O)ccc1-c1ccccc1` here?
Answer: 143 to 145 °C

Question: For `Cn1ccnc1SCC(=O)Nc1cc(C(=O)O)ccc1Cl`, which melting point is on record?
Answer: 223 to 225 °C

Question: Which melting point does the source give for `O=C1CCc2cc(OCCCl)ccc2N1` here?
Answer: 150 to 152 °C

Question: Which melting point does the source give for `CNC(CO)c1cccc(Br)c1` (centres undefined) here?
Answer: 79 to 81 °C

Question: Which melting point does the source give for `Oc1ccc(-c2noc(C3CC3)n2)cc1` here?
Answer: 149 to 151 °C

Question: Which melting point does the source give for `OCC1(NCc2ccccc2)CCC1` here?
Answer: 51 to 53 °C

Question: For `NNc1nc(-c2ccncc2)no1`, which melting point is on record?
Answer: 189 to 191 °C

Question: For `O=C(O)C1(C(=O)NC2CC2)CCC1`, which melting point is on record?
Answer: 139 to 141 °C

Question: Which melting point does the source give for `CNCC(O)CN1CCCC1=O` (centres undefined) here?
Answer: 88 to 90 °C

Question: For `CNS(=O)(=O)c1ccc(Br)c(C)c1`, which melting point is on record?
Answer: 77 to 79 °C

Question: Which melting point does the source give for `O=C(O)c1cn(-c2ccccc2Cl)nn1` here?
Answer: 133 to 135 °C

Question: For `Nc1ccc(CCC(=O)O)nc1`, which melting point is on record?
Answer: 113 to 115 °C

Question: For `ClCc1noc(C2(c3ccccc3)CCOCC2)n1`, which melting point is on record?
Answer: 74 to 76 °C

Question: For `CCOC(=O)c1sc(C(C)N)nc1C` (centres undefined), which melting point is on record?
Answer: 53 to 55 °C

Question: For `O=C(O)C(Sc1cc(F)ccc1F)c1ccccc1` (centres undefined), which melting point is on record?
Answer: 106 to 108 °C

Question: With `O=C(O)CCN1CCSC1=O` as the molecule, how does the melting point read?
Answer: 91 to 93 °C

Question: For `NCc1ccc(OCc2ccccc2)cc1`, which melting point is on record?
Answer: 51 to 53 °C

Question: Which melting point does the source give for `Nc1c(F)ccc(Cl)c1C(=O)O` here?
Answer: 161 to 163 °C

Question: With `CS(=O)(=O)c1ccc2nnn(O)c2c1` as the molecule, how does the melting point read?
Answer: 192 to 194 °C

Question: With `CNC(=O)c1cccnc1Cl` as the molecule, how does the melting point read?
Answer: 106 to 108 °C

Question: With `O=C1C=CC(=O)N1CCc1ccc([N+](=O)[O-])cc1` as the molecule, how does the melting point read?
Answer: 61 to 63 °C

Question: Which melting point does the source give for `ClCc1nnc(-c2cccc(Br)c2)o1` here?
Answer: 74 to 76 °C

Question: For `N#Cc1cc(N)ccc1N1CCC(O)CC1`, which melting point is on record?
Answer: 137 to 139 °C

Question: Which melting point does the source give for `O=C(NC1CC1)C1CCNCC1` here?
Answer: 135 to 137 °C

Question: With `CS(=O)(=O)Cc1ccc(Cl)cc1S(=O)(=O)Cl` as the molecule, how does the melting point read?
Answer: 103 to 105 °C

Question: Which melting point does the source give for `Cc1ccc(I)cc1C(=O)O` here?
Answer: 166 to 168 °C

Question: Which melting point does the source give for `Nc1cccc(Cn2[nH]c(=O)ccc2=O)c1` here?
Answer: 163 to 165 °C

Question: With `CN(C)S(=O)(=O)c1cc(NC(=O)CCl)ccc1Cl` as the molecule, how does the melting point read?
Answer: 183 to 185 °C

Question: For `O=C(O)c1cncc2ccccc12`, which melting point is on record?
Answer: 249 to 251 °C

Question: With `CCC(=O)N1CCc2cc(C(=O)CCl)ccc21` as the molecule, how does the melting point read?
Answer: 201 to 203 °C

From a melting point compilation (Tetko et al.)
